In patent US20050038102A1, “Upregulation of type III endothelial cell Nitric Oxide Synthase by HMG-CoA reductase inhibitors” (BRIGHAM AND WOMENS HOSPITAL, priority 1997, published 2005):

Key:
ecNOS protein = assay: Western blotting of ecNOS protein levels in endothelial cells; assay type: cell-based, human; conditions: for increase in ecNOS protein levels / ecNOS expression / increase in ecNOS protein levels: 0.1 mmol/L alone
Method: Human endothelial cells were harvested from saphenous veins and cultured as described (15). For transfection studies, bovine aortic endothelial cells of less than 3 passages were cultured in a growth medium containing DMEM (Dulbecco's Modified Eagle's Medium), 5 mmol/L L-glutamine (Gibco), and 10% fetal calf serum (Hyclone Lot# 114577). For all experiments, the endothelial cells were placed in 10% lipoprotein-deficient serum (Sigma, Lot#26H9403 1) for 48 h prior to treatment conditions. […] Cellular viability as determined by cell count, morphology, and Trypan blue exclusion was maintained for all treatment conditions.
Cellular proteins were prepared and separated on SDS/PAGE as described (Liao, J K et al., J Biol Chem, 1995, 270:319-324.). Immunoblotting was performed using a murine monoclonal antibody to human ecNOS (1:400 dilution, Transduction Laboratories, Lexington, Ky.). Immunodetection was accomplished using a sheep anti-mouse secondary antibody (1:4000 dilution) and the enhanced chemiluminescence (ECL) kit (Amersham Corp., Arlington Heights, Ill.). Autoradiography was performed at 23° C. and the appropriate exposures were quantitated by densitometry.
Human endothelial cells were harvested from saphenous veins using Type II collagenase (Worthington Biochemical Corp., Freehold, N.J.) as previously described. Cells of less than three passages were grown to confluence in a culture medium containing Medium 199, 20 mM HEPES, 50 mg/ml ECGS (Collaborative Research Inc., Bedford, Mass.), […] heparin sulfate, 5 mM L-glutamine (Gibco), 5% fetal calf serum (Hyclone, Logan, Utah), and antibiotic mixture of penicillin (100 U/ml)/ streptomycin ([…])/Fungizone (1.25 mg/ml). For all experiments, the endothelial cells were grown to confluence before any treatment conditions. In some experiments, cells were pretreated with actinomycin D (5 mg/ml) for 1 h prior to treatment with HMG-CoA reductase inhibitors. […]

wildtype SV-129 mice = assay: Murine model of cerebral vascular ischemia (MCA occlusion), wild-type; assay type: in vivo; conditions: lovastatin treatment
Excerpt: The neurological motor deficit score improved in simvastatin-treated mice (n-18) by almost 2-fold compared to that of controls (n=12) (0.8±0.2 vs. 1.7±0.2, p<0.01).

ecNOS = assay: Assay for ecNOS activity (LNMA-inhibitable nitrite production); assay type: cell-based, human; conditions: higher concentration
wild type mice = assay: Regional cerebral blood flow by laser-Doppler flowimetry, wild type and simvastatin-treated mice; assay type: in vivo
Method: (§1) Regional cerebral blood flow (rCBF) was monitored by laser-Doppler flowimetry in groups of urethane-anesthetized, ventilated mice. Additional physiological variables were also monitored in the mice, including mean arterial blood pressure (MABP), heart rate, blood pH, PaO2, and PaCO2.
(§2) FIG. 5 is a bar graph showing regional CBF changes in wild type and eNOS null mice for 40 min after L-arginine (450 mg/kg) or saline infusion at a constant rate of 100 microliter/kg/min over 15 min. The number of mice in each group is indicated in parenthesis. Error bars denote standard error of the mean (SEM), and an asterisk (*) denotes statistically significant difference (P<0.05) compared with baseline control by one-way ANOVA followed by Fisher's protected least-squares difference test.
Error bars denote SEM and an asterisk (*) denotes statistically significant difference (P<0.05) compared with baseline control by one-way ANOVA followed by Fisher's protected least-squares difference test.

ecNOS mRNA [1] = assay: Quantitative RT-PCR of ecNOS mRNA in mouse aortae and brains; assay type: in vivo, mice
ecNOS mRNA [2] = assay: ecNOS mRNA half-life in the presence of actinomycin D; assay type: cell-based, human
eNOS null mice = assay: Regional cerebral blood flow by laser-Doppler flowimetry, eNOS null mice; assay type: in vivo; conditions: L-arginine 450 mg/kg, i.v., 40 minute recording period
Method: as §1, with “L-arginine infusion at 300 mg/kg, i.v., caused modest (10%) and variable elevations in regional cerebral blood flow (rCBF) after infusion in several preliminary experiments (n=4, data not shown). […] Regional” for “Regional”
as §2

[3] = 1 mmol/L alone (concentration series), 48 h
[4] = 10 mmol/L alone (concentration series), 48 h

## L-mevalonate
Human endothelial cell
  observable adverse effects on cellular morphology: no observable adverse effects
ecNOS protein; addition of L-mevalonate 100 mmol/L to ox-LDL + simvastatin 1 mmol/L
  reduction of ecNOS protein compared to cells treated with ox-LDL and simvastatin: 50%±5%

## CC[C@H](C)C(=O)O[C@H]1C[C@@H](C)C=C2C=C[C@H](C)[C@H](CC[C@@H]3C[C@@H](O)CC(=O)O3)[C@H]21 [lovastatin]
Wildtype SV-129 mice
  reduction of cerebral infarct size: also occurred with lovastatin treatment, albeit at higher relative concentrations
ecNOS
  concentration needed for similar findings, compared to that of simvastatin: 10 fold
ecNOS protein; 48 h
  increase in ecNOS protein levels / ecNOS expression: 10%
ecNOS protein; [3]
  increase in ecNOS expression: 105%
ecNOS protein; [4]
  increase in ecNOS expression: 180%
ecNOS protein; equimolar concentrations
  potency in upregulating ecNOS protein levels, less potent than simvastatin: 10 fold
ecNOS protein; not chemically-activated
  effect on ecNOS expression: had no effect on ecNOS expression

## CCC(C)(C)C(=O)O[C@H]1C[C@@H](C)C=C2C=C[C@H](C)[C@H](CC[C@@H]3C[C@@H](O)CC(=O)O3)[C@H]21 [simvastatin]
Wild type mice; chronic daily administration of simvastatin alone
  increase in baseline rCBF: 25%
ecNOS mRNA [1]; simvastatin 2 mg/kg, 14 days, brain, with respect to GAPDH mRNA
  increase in ecNOS expression in infarcted, ipsilateral hemisphere compared to contralateral side: 1.5-to 2 fold
ecNOS mRNA [1]; simvastatin-treated mice, dose-dependent
  increase of ecNOS message compared to that of GAPDH, aortae: 3 fold
ecNOS protein; 0.01 mmol/L alone (series 0.01 to 10 mmol/L), 48 h
  increase in ecNOS expression: 1%
ecNOS protein; 12 h
  increase in ecNOS protein levels: 4%
ecNOS protein; 24 h
  increase in ecNOS protein levels: 21%
ecNOS protein; 48 h
  increase in ecNOS protein levels / ecNOS expression: 80%
ecNOS protein; 72 h
  increase in ecNOS protein levels: 90%
ecNOS protein; 84 h
  increase in ecNOS protein levels: 95%
ecNOS protein; [3]
  increase in ecNOS expression: 190%
ecNOS protein; [4]
  increase in ecNOS expression: 310%
ecNOS protein; simvastatin 0.1 mmol/L + ox-LDL 50 mg/ml, 24 h
  decrease in ecNOS protein level: 15%
ecNOS protein; simvastatin 0.1 mmol/L + ox-LDL 50 mg/ml, 72 h
  ecNOS protein levels increased above basal expression: 110%
ecNOS protein; simvastatin 0.1 mmol/L + ox-LDL 50 mg/ml, 96 h
  ecNOS protein levels increased above basal expression: 124%
ecNOS protein; simvastatin 1 mmol/L + ox-LDL 50 mg/ml (TBARS 15.1 nmol/mg), 48 h
  ecNOS expression above basal expression: 150%
ecNOS protein; simvastatin 10 mmol/L + ox-LDL 50 mg/ml, 48 h
  ecNOS protein levels above baseline: 210%±12%
ecNOS mRNA [2]; simvastatin 0.1 mmol/L + ox-LDL
  half-life of ecNOS mRNA (t½): 22 ± 3 h
ecNOS mRNA [2]; simvastatin alone
  half-life of ecNOS mRNA (t½): 43 ± 4 h

## N=C(N)NCCC[C@H](N)C(=O)O [L-arginine]
Wild type mice; L-arginine 300 mg/kg, i.v., preliminary experiments
  elevation in regional cerebral blood flow (rCBF): 10%
Wild type mice; L-arginine 450 mg/kg, i.v., wild type mice
  time at which increase in rCBF began: 5 to 10 min
Wild type mice; L-arginine 450 mg/kg, i.v., wild type mice, at 20-25 min
  maximum increase in rCBF above baseline: 26%
Wild type mice; L-arginine infusion in simvastatin-treated mice
  additional time for which rCBF increases were sustained: 20 min
Wild type mice; L-arginine infusion in simvastatin-treated mice, at 15-20 min
  maximum increase in rCBF over simvastatin baseline: 29-31%
eNOS null mice
  rCBF change: −4 to +5%
